Experimental data taken from US11149047B2, “Aryl imidazoles for treatment of cancer” (Aptose Biosciences Inc., priority 2017, dated 2021).

Tests used:
[1] = system: Raji/COMPOUND IR cells; assay: Cytotoxicity study, MTS cell proliferation assay, 5 days; format: cell-based, human
Description: (§1) The human Burkitt lymphoma cell line Raji was obtained from the American Type Tissue Culture Collection and cultured in RPMI 1640 medium (ATCC) supplemented with 10% fetal bovine serum (ATCC,) at 37° C., 5% CO2. The COMPOUND I-resistant Raji (Raji/COMPOUND IR) cell line was generated by exposure to progressively higher concentrations of COMPOUND I over a period of 6 months. CAOV3 cells were obtained from ATCC and cultured in complete DMEM supplemented with 10% fetal bovine serum. MCF7 vector controlled and BRCA1 shRNA subclones were obtained from Dr. Simon Powell (Memorial Sloan-Kettering Cancer Center) and cultured in EMBM with 10% fetal bovine serum. MCF10A and hTERT-IMEC clones were obtained from Dr. Ben Ho Park (Johns Hopkins University). HCT116 BRCA2^+/+ cells and BRCA2^−/− cells were obtained from Dr. Samuel Aparicio (British Columbia Cancer Research Centre). PEO1 and PEO4 cells were obtained from Dr. Sharon Cantor (University of Massachusetts) and these cell lines were cultured under the same conditions as previously published. Sakai et al., Functional restoration of BRCA2 protein by secondary BRCA2 mutations in BRCA2-mutated ovarian carcinoma, Cancer Res. 2009; 69 (16):6381-6; Konishi et al., Mutation of a single allele of the cancer susceptibility gene BRCA1 leads to genomic instability in human breast epithelial cells, Proc. Natl. Acad. Sci. 2011; 108 (43):17773-8; Xu et al., CX-5461 is a DNA G-quadruplex stabilizer with selective lethality in BRCA1/2 deficient tumours, Nature Communications 2017; 8:14432, all of which are hereby incorporated by reference.
(§2) Cells were plated and treated with the indicated drugs in 96-well plates for 5 days. Cell viability was measured using CellTiter 96 AQueous one solution (MTS) cell proliferation assay purchased from Promega, and IC50 values were calculated using GraphPad Prism 6 Software.

[2] = system: MCF10A BRCA1-het #1 and #2 clones vs control; assay: Sensitivity of BRCA1-proficient and -deficient isogenic clones; format: cell-based, human; details: FIG. 3A
Description: as §2
(§3) The finding that COMPOUND I produced DNA damage led to the investigation of whether cells deficient in homologous recombination were hypersensitive to this drug. The hypothesis that there would be synthetic lethality between COMPOUND I and BRCA1 deficiency using isogenic pairs of BRCA1-proficient and -deficient human cell lines was tested. […] The conclusion that BRCA1-deficient cells are hypersensitive to COMPOUND I was further supported by the results obtained in MCF7 E7 cells in which BRCA1 expression is stably knocked down by the expression of an shRNAi. […] Whether BRCA2-deficient cells are more sensitive to COMPOUND I was tested using the BRCA2-proficient and BRCA2-deficient ovarian cancer cell lines, PEO4 and PEO1, respectively. PEO1 is BRCA2-deficient and sensitive to cisplatin and a poly(ADP-ribose) polymerase inhibitor AG14361. PEO4 was derived from ascites at the time of relapse with cisplatin resistance and contains a secondary mutation that restores BRCA2 function. […] Thus, loss of either BRCA1 or BRCA2 function renders malignant cells hypersensitive to COMPOUND I.

[3] = system: hTERT-IMEC BRCA1 knock-in clone; assay: as above; format: cell-based, human; details: FIG. 3B
Description: as §2, §3

[4] = system: PEO4 and PEO1 ovarian cancer cell lines; assay: Sensitivity of BRCA2-proficient and -deficient cells; format: cell-based; details: FIG. 3D
Description: as §2, §3

[5] = system: G4 sequences (telomere, MYC, KIT, rRNA oligos); assay: Modified FRET assay, melting of G-quadruplex oligos; format: binding, human; details: FIG. 13C; COMPOUND I data at 6-hour incubation
Description: FRET assay and data analysis was performed as described previously and modified by using dual labeled (5′ FAM-3′ BHQ1) single-stranded oligos. Melting temperature of each oligo was assessed in the presence of vehicle DMSO or escalating concentrations of COMPOUND I, Fe(COMPOUND I)3, CX-5461, or TMPyP4 using a Roche LightCycler 96 [at 37° C. for 300 seconds followed by temperature increased in […] intervals up to 91° C. (25 steps) with 300-second total incubation time at each temperature]. Drug and oligo reaction mixes were analyzed immediately or incubated for 6 hours at room temperature and then analyzed. […] COMPOUND I data are presented for 6-hour time point.
The ability of COMPOUND I (parental monomeric form of the drug) and Fe(COMPOUND I)3 to bind and stabilize G4 sequences using a modified FRET assay was evaluated (FIGS. 21 and 22). TMPyP4, a well-known G4 ligand, and CX-5461, a clinical stage molecule recently reported to have G4-binding properties, were utilized as controls to assess the specificity of COMPOUND I and Fe(COMPOUND I)3 for G4-stabilizing activity.

[6] = system: Raji cells; assay: Cytotoxicity study, MTS cell proliferation assay, 5 days; format: cell-based, human; details: concentrations up to 300 nM, FIG. 5C
Description: as §1, §2

COc1cc([C@@H]2c3cc4c(cc3[C@@H](O[C@@H]3O[C@@H]5CO[C@@H](C)O[C@H]5[C@H](O)[C@H]3O)[C@H]3COC(=O)[C@H]23)OCO4)cc(OC)c1O [etoposide, reference compound]
sensitivity of Raji/COMPOUND IR cells relative to Raji [1]: hypersensitive

O=C(c1cc(Cc2n[nH]c(=O)c3ccccc23)ccc1F)N1CCN(C(=O)C2CC2)CC1 [olaparib, reference compound]
sensitivity of BRCA1-het knockin clones vs control [2]: more sensitive to olaparib
sensitivity of BRCA1 2-bp knock-in clone [3]: hypersensitive to both olaparib and COMPOUND I
effect of restoration of BRCA2 function (PEO4 vs PEO1) [4]: increased resistance

C[n+]1ccc(-c2c3nc(c(-c4cc[n+](C)cc4)c4ccc([nH]4)c(-c4cc[n+](C)cc4)c4ccc([nH]4)c(-c4cc[n+](C)cc4)c4nc2C=C4)C=C3)cc1 [TMPyP4]
stabilization of G4 sequences (ΔT1/2) [5]: stabilized all G4 motifs except the G4 of the KIT gene promoter

COc1ccc2c3c([nH]c2c1)[C@H](CC(C)C)N1C(=O)[C@H](CCC(=O)OC(C)(C)C)NC(=O)[C@@H]1C3 [Ko143, reference compound]
toxicity of Ko143 alone [6]: not toxic
toxicity of Ko143 alone ([1]; concentrations up to 300 nM, FIG. 5C): not toxic

Cc1cnc(CNC(=O)c2c(=O)c3ccc(N4CCCN(C)CC4)nc3n3c2sc2ccccc23)cn1 [CX-5461]
stabilization of G4 sequences (ΔT1/2) [5]: potent stabilizer of all G4 sequences tested

N.N.O=C([O-])C1(C(=O)[O-])CCC1.[Pt+2] [carboplatin, reference compound]
sensitivity of Raji/COMPOUND IR cells relative to Raji [1]: significantly cross-resistant

CC[C@@]1(O)C(=O)OCc2c1cc1n(c2=O)Cc2cc3c(CN(C)C)c(O)ccc3nc2-1 [topotecan, reference compound]
cross-resistance of Raji/COMPOUND IR cells ([1]; vs Raji): 3 fold
effect of Ko143 on topotecan resistance ([1]; with Ko143, FIG. 5E): reversed this resistance completely
